The target in assay [1] is T1, HDAC6 enzyme (Homo sapiens, UniProt Q9UBN7).
T1 construct: prepared by transducing full length HDAC1 and HDAC6 genes into Sf-9 insect cells; GST; purchased SignalChem; host or cells: Sf-9 insect cells
T1 sequence (Q9UBN7 1-1215): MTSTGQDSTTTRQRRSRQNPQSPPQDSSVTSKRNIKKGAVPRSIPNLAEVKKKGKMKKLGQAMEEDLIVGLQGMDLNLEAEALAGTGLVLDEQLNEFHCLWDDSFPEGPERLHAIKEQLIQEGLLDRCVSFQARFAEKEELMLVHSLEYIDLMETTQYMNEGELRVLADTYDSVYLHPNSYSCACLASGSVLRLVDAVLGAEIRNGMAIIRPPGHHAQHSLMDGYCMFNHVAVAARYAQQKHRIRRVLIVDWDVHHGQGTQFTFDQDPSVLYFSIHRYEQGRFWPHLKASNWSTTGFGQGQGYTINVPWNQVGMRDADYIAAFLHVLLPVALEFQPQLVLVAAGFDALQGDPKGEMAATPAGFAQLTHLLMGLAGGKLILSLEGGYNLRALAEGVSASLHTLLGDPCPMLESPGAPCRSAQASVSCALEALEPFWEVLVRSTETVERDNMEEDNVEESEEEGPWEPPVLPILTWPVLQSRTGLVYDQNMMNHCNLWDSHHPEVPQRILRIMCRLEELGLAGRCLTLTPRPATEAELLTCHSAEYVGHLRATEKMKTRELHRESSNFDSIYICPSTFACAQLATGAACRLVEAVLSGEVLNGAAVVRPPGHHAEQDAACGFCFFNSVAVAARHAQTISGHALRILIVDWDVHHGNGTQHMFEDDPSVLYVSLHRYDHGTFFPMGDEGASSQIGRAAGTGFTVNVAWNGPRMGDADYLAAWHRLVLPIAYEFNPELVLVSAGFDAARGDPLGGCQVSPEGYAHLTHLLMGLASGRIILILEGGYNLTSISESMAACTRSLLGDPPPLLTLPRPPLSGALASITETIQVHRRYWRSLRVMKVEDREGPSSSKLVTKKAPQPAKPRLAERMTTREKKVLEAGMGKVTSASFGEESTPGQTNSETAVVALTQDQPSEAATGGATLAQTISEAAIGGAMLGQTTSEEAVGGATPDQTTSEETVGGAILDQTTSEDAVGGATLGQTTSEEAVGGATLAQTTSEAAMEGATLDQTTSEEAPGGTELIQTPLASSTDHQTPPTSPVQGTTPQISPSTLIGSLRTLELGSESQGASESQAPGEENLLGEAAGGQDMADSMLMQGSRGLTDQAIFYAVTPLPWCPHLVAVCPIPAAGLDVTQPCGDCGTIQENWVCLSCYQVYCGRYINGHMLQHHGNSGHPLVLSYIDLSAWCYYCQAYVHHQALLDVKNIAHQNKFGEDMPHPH
The experiment in a line: HDAC6 enzyme inhibitory assay (HDAC-Glo I/II Assay kit). The class given is biochemical. To be noted: 1 μM test compound; for inhibition at 1 µM: read-out: HDAC6 inhibitory rate (%) (1 μM). In short, it runs like this: (§1)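 Full-length GST-purified HDAC1 or HDAC6 (Sf-9 expressed) preincubated 60 min at room temperature with compound in Tris-HCl pH 7.5 buffer with glutathione and Tween-20. HDAC-Glo substrate-developer added, 20 min at room temperature, then luminescence read; inhibition relative to no-enzyme wells as 100%.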

The target of assay [2] is T2, HDAC1 enzyme (Homo sapiens, UniProt Q13547).
T2 construct: prepared by transducing full length HDAC1 and HDAC6 genes into Sf-9 insect cells; GST; purchased SignalChem; host or cells: Sf-9 insect cells
T2 sequence (Q13547 whole entry): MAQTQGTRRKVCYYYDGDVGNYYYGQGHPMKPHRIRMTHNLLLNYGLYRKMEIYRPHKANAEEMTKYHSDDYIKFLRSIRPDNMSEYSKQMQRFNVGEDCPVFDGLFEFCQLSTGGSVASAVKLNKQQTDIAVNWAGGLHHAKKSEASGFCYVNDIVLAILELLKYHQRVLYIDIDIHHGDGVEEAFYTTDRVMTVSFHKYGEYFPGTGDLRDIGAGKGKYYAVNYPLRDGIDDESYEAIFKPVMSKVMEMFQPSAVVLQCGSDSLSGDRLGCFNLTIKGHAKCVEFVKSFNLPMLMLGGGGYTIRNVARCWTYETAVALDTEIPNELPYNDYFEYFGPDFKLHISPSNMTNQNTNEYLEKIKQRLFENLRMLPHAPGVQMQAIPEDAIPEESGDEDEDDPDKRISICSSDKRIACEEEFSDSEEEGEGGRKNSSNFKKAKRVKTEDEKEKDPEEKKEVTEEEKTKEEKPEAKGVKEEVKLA
The experiment in a line: HDAC1 enzyme inhibitory assay (HDAC-Glo I/II Assay kit). The class given is biochemical. To be noted: 1 μM test compound; for inhibition at 1 µM: read-out: HDAC1 inhibitory rate (%) (1 μM). In short, it runs like this: as §1

In the case of `O=C(NC[C@H]1COCCN1C(=O)N1CCC[C@@H]1C(F)(F)F)c1ccc(-c2noc(C(F)(F)F)n2)cc1` [Example 286, 4-(5-(trifluoromethyl)-1,2,4-oxadiazol-3-yl)-N-(((3S)-4-(((2R)-2-(trifluoromethyl)pyrrolidin-1-yl)carbonyl)morpholin-3-yl)methyl)benzamide], the inhibition at 1 µM in assay [1] worked out at 95%; in assay [2] it was 2%.
For the molecule `O=C(NC[C@H]1COCCN1C(=O)N1CCC[C@H]1C(F)(F)F)c1ccc(-c2noc(C(F)(F)F)n2)cc1` [Example 287, 4-(5-(trifluoromethyl)-1,2,4-oxadiazol-3-yl)-N-(((3S)-4-(((2S)-2-(trifluoromethyl)pyrrolidin-1-yl)carbonyl)morpholin-3-yl)methyl)benzamide], the inhibition at 1 µM in assay [1] was found to be 91%; in assay [2] it was 2%.
As for `C[C@H]1CCCN1C(=O)N1CCOC[C@@H]1CNC(=O)c1ccc(-c2noc(C(F)(F)F)n2)cc1` [Example 288, N-(((3S)-4-(((2S)-2-methylpyrrolidin-1-yl)carbonyl)morpholin-3-yl)methyl)-4-(5-(trifluoromethyl)-1,2,4-oxadiazol-3-yl)benzamide], the values for the inhibition at 1 µM in assay [1] and in assay [2] were 102% and 3%, respectively.
Regarding `C[C@@H]1CCCN1C(=O)N1CCOC[C@@H]1CNC(=O)c1ccc(-c2noc(C(F)(F)F)n2)cc1` [Example 289, N-(((3S)-4-(((2R)-2-methylpyrrolidin-1-yl)carbonyl)morpholin-3-yl)methyl)-4-(5-(trifluoromethyl)-1,2,4-oxadiazol-3-yl)benzamide], the results for the inhibition at 1 µM in assay [1] and in assay [2] were 85% and 4%, respectively.
For `O=C(NC[C@H]1COCCN1C(=O)N1CCCOCC1)c1ccc(-c2noc(C(F)(F)F)n2)cc1` [Example 290, N-(((3S)-4-(1,4-oxazepan-4-ylcarbonyl)morpholin-3-yl)methyl)-4-(5-(trifluoromethyl)-1,2,4-oxadiazol-3-yl)benzamide], the inhibition at 1 µM amounted to 97% in assay [1] and 3% in assay [2].
For the molecule `O=C(NC[C@H]1COCCN1C(=O)N1CCCOC(CO)C1)c1ccc(-c2noc(C(F)(F)F)n2)cc1` (stereo partly drawn) [Example 291, N-(((3S)-4-((2-(hydroxymethyl)-1,4-oxazepan-4-yl)carbonyl)morpholin-3-yl)methyl)-4-(5-(trifluoromethyl)-1,2,4-oxadiazol-3-yl)benzamide], the figures for the inhibition at 1 µM in assay [1] and in assay [2] were 90% and 1%, respectively.
Turning to `O=C(NC[C@H]1COCCN1C(=O)N1CCCC1c1cccnc1)c1ccc(-c2noc(C(F)(F)F)n2)cc1` (stereo partly drawn) [Example 292, N-(((3S)-4-((2-(pyridin-3-yl)pyrrolidin-1-yl)carbonyl)morpholin-3-yl)methyl)-4-(5-(trifluoromethyl)-1,2,4-oxadiazol-3-yl)benzamide], the results for the inhibition at 1 µM in assay [1] and in assay [2] were 76% and 2%, respectively.
As for `O=C(NC[C@H]1COCCN1C(=O)N1CCC(c2ccccc2)C1)c1ccc(-c2noc(C(F)(F)F)n2)cc1` (stereo partly drawn) [Example 293, N-(((3S)-4-((3-phenylpyrrolidin-1-yl)carbonyl)morpholin-3-yl)methyl)-4-(5-(trifluoromethyl)-1,2,4-oxadiazol-3-yl)benzamide], the inhibition at 1 µM in assay [1] came to 90%; in assay [2], 14%.
On to `O=C(NC[C@H]1COCCN1C(=O)N1CCC(c2cccnc2)C1)c1ccc(-c2noc(C(F)(F)F)n2)cc1` (stereo partly drawn) [Example 294, N-(((3S)-4-((3-(pyridin-3-yl)pyrrolidin-1-yl)carbonyl)morpholin-3-yl)methyl)-4-(5-(trifluoromethyl)-1,2,4-oxadiazol-3-yl)benzamide], for which the inhibition at 1 µM in assay [1] came out at 82%; in assay [2] it was 5%.
On the same counts, the results for `O=C(NC[C@H]1COCCN1C(=O)N1CCC(c2ccncc2)C1)c1ccc(-c2noc(C(F)(F)F)n2)cc1` (stereo partly drawn) [Example 295, N-(((3S)-4-((3-(pyridin-4-yl)pyrrolidin-1-yl)carbonyl)morpholin-3-yl)methyl)-4-(5-(trifluoromethyl)-1,2,4-oxadiazol-3-yl)benzamide] are 85% and 8%.
As for `O=C(NC[C@H]1COCCN1C(=O)c1ccnn1CCO)c1ccc(-c2noc(C(F)(F)F)n2)cc1` [Example 296, N-(((3S)-4-((1-(2-hydroxyethyl)-1H-pyrazol-5-yl)carbonyl)morpholin-3-yl)methyl)-4-(5-(trifluoromethyl)-1,2,4-oxadiazol-3-yl)benzamide], the inhibition at 1 µM came out at 100% in assay [1] and 32% in assay [2].
For the molecule `Cn1nccc1CC(=O)N1CCOC[C@@H]1CNC(=O)c1ccc(-c2noc(C(F)(F)F)n2)cc1` [Example 297, N-(((3S)-4-((1-methyl-1H-pyrazol-5-yl)acetyl)morpholin-3-yl)methyl)-4-(5-(trifluoromethyl)-1,2,4-oxadiazol-3-yl)benzamide], the results for the inhibition at 1 µM in assay [1] and in assay [2] were 93% and 5%, respectively.
With `O=C(NC[C@H]1COCCN1C(=O)N1CCC(CO)C1)c1ccc(-c2noc(C(F)(F)F)n2)cc1` (stereo partly drawn) [Example 298, N-(((3S)-4-((3-(hydroxymethyl)pyrrolidin-1-yl)carbonyl)morpholin-3-yl)methyl)-4-(5-(trifluoromethyl)-1,2,4-oxadiazol-3-yl)benzamide], the inhibition at 1 µM in assay [1] is 88%; in assay [2] it was 3%.
`O=C(NC[C@H]1COCCN1C(=O)N1CCC(CO)C1)c1ccc(-c2noc(C(F)(F)F)n2)cc1` (stereo partly drawn) [Example 299, N-(((3S)-4-((3-(hydroxymethyl)pyrrolidin-1-yl)carbonyl)morpholin-3-yl)methyl)-4-(5-(trifluoromethyl)-1,2,4-oxadiazol-3-yl)benzamide]: in assay [1], the “HDAC6 inhibitory rate (%) (1 μM)” value turned out to be 94%. In addition, the “HDAC1 inhibitory rate (%) (1 μM)” value in assay [2] is 4%.
Consider `O=C(NC[C@H]1COCCN1C(=O)N1CCC(CCO)C1)c1ccc(-c2noc(C(F)(F)F)n2)cc1` (stereo partly drawn) [Example 300, N-(((3S)-4-((3-(2-hydroxyethyl)pyrrolidin-1-yl)carbonyl)morpholin-3-yl)methyl)-4-(5-(trifluoromethyl)-1,2,4-oxadiazol-3-yl)benzamide], for which the results for the inhibition at 1 µM in assay [1] and in assay [2] were 90% and 4%, respectively.
Turning to `O=C(NC[C@H]1COCCN1C(=O)N1CCC(CCO)C1)c1ccc(-c2noc(C(F)(F)F)n2)cc1` (stereo partly drawn) [Example 301, N-(((3S)-4-((3-(2-hydroxyethyl)pyrrolidin-1-yl)carbonyl)morpholin-3-yl)methyl)-4-(5-(trifluoromethyl)-1,2,4-oxadiazol-3-yl)benzamide], the “HDAC6 inhibitory rate (%) (1 μM)” value in assay [1] turned out to be 92%. Besides, the “HDAC1 inhibitory rate (%) (1 μM)” value in assay [2] is given as 3%.
Consider `O=C(NC[C@H]1COCCN1C(=O)c1cccc(OCCO)c1)c1ccc(-c2noc(C(F)(F)F)n2)cc1` [Example 302, N-(((3S)-4-(3-(2-hydroxyethoxy)benzoyl)morpholin-3-yl)methyl)-4-(5-(trifluoromethyl)-1,2,4-oxadiazol-3-yl)benzamide], for which the inhibition at 1 µM in assay [1] is 98%; in assay [2], 10%.
As for `O=C(NC[C@H]1COCCN1C(=O)N1CCCCC1CO)c1ccc(-c2noc(C(F)(F)F)n2)cc1` (stereo partly drawn) [Example 303, N-(((3S)-4-((2-(hydroxymethyl)piperidin-1-yl)carbonyl)morpholin-3-yl)methyl)-4-(5-(trifluoromethyl)-1,2,4-oxadiazol-3-yl)benzamide], the inhibition at 1 µM in assay [1] turned out to be 99%; in assay [2], 8%.

The record behind these values is patent US10081624B2, “Heterocyclic compound” (Takeda Pharmaceutical Company Limited, priority 2014, dated 2018).
